In the assay the test system is SARS-CoV-2 delta variant (hCoV-19/USA/MD-HP05647/2021). As to the kind of experiment: Live virus antiviral test in A549-hACE2 cells (RT-qPCR). The class given is cell-based. To be noted: Severe acute respiratory syndrome coronavirus 2, 72 h. In general terms: Quantitative PCR measures a nucleic acid by following its amplification.

SMILES strings stand for the structures.

Usually EC50 stands for the concentration that produces a half-maximal response.

With `CC1(C)[C@@H]2[C@@H](C(=O)N[C@H](C=O)C[C@@H]3CCNC3=O)N(C(=O)[C@H](CC3CCCCC3)NC(=O)OCc3ccccc3)C[C@@H]21` [MPI100], the response was half-maximal at 3.4 µM (EC50).

Source of the values: article PMC11181478, “SARS-CoV-2 Main Protease Inhibitors That Leverage Unique Interactions with the Solvent Exposed S3 Site of the Enzyme” (ACS Medicinal Chemistry Letters, 2024).
